Measurements taken from PMC7702137 (2020).

Experiments:
[1] = system: r(CCG)9 (RNA, repeat) CCGCCGCCGCCGCCGCCGCCGCCGCCG; assay: SPR single cycle kinetics; conditions: HBS-EP+ buffer, 25 °C
[2] = system: r(CUG)9 (RNA, repeat) CUGCUGCUGCUGCUGCUGCUGCUGCUG; assay: SPR single cycle kinetics; conditions: 25 °C

Row | SMILES | binding ([1]; highest concentration tested 1.0 μM) | K d(app) ([2]; Na+ not printed for the running buffer (HBS-EP+; 500 mM NaCl only for immobilization), apparent, assumed 1:1 binding isotherm, 0.063-1.0 μM) | binding ([1]; highest concentration tested 0.1 μM) | binding ([2]; HBS-EP+ buffer, 6.3-100 nM, significant response from 6.3 nM, not fitted)
1 | NCCCNc1nc(NC(=O)OCCCN)cc2c(-c3ccnc(N4CCNCC4)c3)cccc12 | weak | 1.2 µM | – | –
2 | NCCCNc1nc(NC(=O)OCCCNC(=O)CCNCCC(=O)NCCCOC(=O)Nc2cc3c(-c4ccnc(N5CCNCC5)c4)cccc3c(NCCCN)n2)cc2c(-c3ccnc(N4CCNCC4)c3)cccc12 | – | – | weak | yes
